# Source: US9492471B2, “Methods of treating a disease or disorder associated with Bruton'S Tyrosine Kinase” (Celgene Avilomics Research, Inc., priority 2013, dated 2016)
# Where two headings read alike, the source gives them in different places.
# Tests used:
# Assay in all cases: HotSpot kinase profiling
# Format in all cases: biochemical
# ALK3/BMPR1A = target: T1, ALK3/BMPR1A (Homo sapiens, UniProt P36894)
# T1 construct: purchased Reaction Biology Corp
# Summary of the method: (§1)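 Radiometric kinase assay with P81 filter capture; each kinase was added to fresh substrate plus cofactors in reaction buffer and incubated 2 h at room temperature. Unreacted phosphate was washed off with 0.1% phosphoric acid before detection; percent inhibition is relative to DMSO control, averaged over replicates.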
# BMX/ETK = target: T2, BMX/ETK (Homo sapiens, UniProt P51813)
# T2 construct: purchased Reaction Biology Corp
# T2 sequence (P51813 1-675): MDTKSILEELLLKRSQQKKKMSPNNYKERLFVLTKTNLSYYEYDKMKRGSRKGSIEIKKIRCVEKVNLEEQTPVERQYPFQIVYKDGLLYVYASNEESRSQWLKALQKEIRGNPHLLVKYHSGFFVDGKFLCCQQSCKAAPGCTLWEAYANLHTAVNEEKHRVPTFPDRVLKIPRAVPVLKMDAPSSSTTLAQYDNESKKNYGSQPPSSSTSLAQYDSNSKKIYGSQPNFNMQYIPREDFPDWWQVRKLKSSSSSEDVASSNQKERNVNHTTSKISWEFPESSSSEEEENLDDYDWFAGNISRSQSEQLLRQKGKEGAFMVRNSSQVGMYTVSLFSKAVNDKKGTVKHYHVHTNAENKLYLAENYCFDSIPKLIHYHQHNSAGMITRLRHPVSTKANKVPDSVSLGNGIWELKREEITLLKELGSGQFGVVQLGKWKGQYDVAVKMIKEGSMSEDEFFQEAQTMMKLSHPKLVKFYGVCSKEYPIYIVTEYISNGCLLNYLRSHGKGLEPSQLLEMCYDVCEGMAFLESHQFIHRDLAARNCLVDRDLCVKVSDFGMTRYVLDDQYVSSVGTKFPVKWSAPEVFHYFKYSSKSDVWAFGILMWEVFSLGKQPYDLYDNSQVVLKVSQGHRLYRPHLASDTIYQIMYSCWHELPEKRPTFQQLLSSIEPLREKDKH
# Summary of the method: as §1
# MARK3 = target: T3, MARK3 (Homo sapiens, UniProt P27448)
# T3 construct: purchased Reaction Biology Corp
# T3 sequence (P27448 whole entry): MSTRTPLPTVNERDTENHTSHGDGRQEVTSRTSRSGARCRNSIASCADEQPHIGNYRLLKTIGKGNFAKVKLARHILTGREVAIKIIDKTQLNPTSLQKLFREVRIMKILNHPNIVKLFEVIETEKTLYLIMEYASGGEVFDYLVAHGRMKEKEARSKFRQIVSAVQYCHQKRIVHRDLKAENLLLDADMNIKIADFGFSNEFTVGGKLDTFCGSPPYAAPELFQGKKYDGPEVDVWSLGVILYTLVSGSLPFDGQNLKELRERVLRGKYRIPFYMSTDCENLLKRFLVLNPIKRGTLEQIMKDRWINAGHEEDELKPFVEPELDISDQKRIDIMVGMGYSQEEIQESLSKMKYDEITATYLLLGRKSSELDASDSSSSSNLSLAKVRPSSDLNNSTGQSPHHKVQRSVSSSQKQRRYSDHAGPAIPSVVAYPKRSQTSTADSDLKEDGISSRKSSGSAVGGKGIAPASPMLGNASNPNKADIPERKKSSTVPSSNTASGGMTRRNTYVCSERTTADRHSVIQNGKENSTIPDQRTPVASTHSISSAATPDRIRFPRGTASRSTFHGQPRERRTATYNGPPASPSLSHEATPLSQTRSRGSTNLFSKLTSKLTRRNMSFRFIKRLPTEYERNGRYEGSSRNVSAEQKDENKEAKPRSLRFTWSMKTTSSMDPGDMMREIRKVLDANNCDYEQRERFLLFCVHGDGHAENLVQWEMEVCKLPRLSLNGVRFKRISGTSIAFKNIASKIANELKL
# Summary of the method: as §1
# PKCnu/PRKD3 = target: T4, PKCnu/PRKD3 (Homo sapiens, UniProt O94806)
# T4 construct: purchased Reaction Biology Corp
# T4 sequence (O94806 1-890): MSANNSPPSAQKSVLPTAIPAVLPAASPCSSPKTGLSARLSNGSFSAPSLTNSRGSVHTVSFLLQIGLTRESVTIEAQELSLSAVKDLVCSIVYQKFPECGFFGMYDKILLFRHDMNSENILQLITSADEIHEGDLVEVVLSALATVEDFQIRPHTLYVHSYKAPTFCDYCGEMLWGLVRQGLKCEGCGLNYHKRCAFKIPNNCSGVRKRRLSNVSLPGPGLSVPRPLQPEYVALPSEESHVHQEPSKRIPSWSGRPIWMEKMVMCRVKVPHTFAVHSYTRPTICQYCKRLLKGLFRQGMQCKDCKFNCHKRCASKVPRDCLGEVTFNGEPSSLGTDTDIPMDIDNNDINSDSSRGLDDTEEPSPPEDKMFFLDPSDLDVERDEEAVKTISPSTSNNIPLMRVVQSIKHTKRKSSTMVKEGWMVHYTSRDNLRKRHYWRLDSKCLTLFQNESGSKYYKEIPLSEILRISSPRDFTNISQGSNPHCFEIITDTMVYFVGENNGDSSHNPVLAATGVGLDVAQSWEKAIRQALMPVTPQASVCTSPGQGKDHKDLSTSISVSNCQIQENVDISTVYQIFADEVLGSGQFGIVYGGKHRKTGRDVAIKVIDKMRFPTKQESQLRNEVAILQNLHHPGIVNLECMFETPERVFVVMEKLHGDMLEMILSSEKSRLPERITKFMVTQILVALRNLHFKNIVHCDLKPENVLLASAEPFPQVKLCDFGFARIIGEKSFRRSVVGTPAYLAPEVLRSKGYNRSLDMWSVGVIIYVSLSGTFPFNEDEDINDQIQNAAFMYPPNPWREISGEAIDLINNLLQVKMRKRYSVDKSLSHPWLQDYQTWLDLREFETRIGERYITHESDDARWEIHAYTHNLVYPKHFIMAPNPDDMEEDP
# Summary of the method: as §1
# PKCzeta = target: T5, PKCzeta (Homo sapiens, UniProt Q05513)
# T5 construct: purchased Reaction Biology Corp
# T5 sequence (Q05513 1-592): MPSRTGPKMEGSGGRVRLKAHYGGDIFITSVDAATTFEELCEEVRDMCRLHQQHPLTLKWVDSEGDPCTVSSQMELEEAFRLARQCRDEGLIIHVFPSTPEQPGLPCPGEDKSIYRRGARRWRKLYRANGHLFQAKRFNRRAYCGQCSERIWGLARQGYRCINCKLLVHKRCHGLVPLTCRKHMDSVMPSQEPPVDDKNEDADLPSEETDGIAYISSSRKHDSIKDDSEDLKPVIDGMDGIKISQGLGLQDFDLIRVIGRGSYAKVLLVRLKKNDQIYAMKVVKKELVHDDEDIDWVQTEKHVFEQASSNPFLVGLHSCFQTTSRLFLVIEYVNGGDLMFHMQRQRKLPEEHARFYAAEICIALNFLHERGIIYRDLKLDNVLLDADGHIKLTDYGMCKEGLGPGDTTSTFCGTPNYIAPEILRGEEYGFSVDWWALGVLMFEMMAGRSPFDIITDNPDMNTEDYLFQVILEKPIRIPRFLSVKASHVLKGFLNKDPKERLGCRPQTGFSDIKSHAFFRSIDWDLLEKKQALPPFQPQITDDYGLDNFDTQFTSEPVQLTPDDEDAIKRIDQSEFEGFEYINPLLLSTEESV
# Summary of the method: as §1
# [1] = read-out: % Enzyme Activity (relative to DMSO controls) Run 1
# [2] = read-out: % Enzyme Activity (relative to DMSO controls) Run 2
# T1 sequence (P36894 24-532): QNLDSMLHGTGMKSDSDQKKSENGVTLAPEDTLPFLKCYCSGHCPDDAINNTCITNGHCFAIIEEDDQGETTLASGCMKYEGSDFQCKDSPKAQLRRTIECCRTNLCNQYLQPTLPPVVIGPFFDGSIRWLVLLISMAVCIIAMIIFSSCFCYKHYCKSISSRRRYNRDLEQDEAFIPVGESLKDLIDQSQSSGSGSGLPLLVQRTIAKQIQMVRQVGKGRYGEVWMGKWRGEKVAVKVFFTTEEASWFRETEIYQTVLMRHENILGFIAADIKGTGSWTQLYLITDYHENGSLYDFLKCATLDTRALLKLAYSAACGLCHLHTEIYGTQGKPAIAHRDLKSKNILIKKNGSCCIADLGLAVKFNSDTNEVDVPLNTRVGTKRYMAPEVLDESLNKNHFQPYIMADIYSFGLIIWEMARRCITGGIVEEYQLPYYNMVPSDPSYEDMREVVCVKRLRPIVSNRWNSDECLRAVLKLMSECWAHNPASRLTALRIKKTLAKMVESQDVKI
structure (smiles),measurement,setting,value
C=CC(=O)Nc1cccc(Nc2nc(Nc3ccc(OCCOC)c(F)c3)ncc2F)c1 [Compound 2],inhibition at 3 µM,ALK3/BMPR1A,-4.41%
same,remaining activity at 3 µM,ALK3/BMPR1A; [1],104%
same,remaining activity at 3 µM,ALK3/BMPR1A; [2],105%
same,inhibition at 3 µM,BMX/ETK,98.9%
same,remaining activity at 3 µM,BMX/ETK; [1],0.93%
same,remaining activity at 3 µM,BMX/ETK; [2],1.23%
same,inhibition at 3 µM,MARK3,-0.92%
same,remaining activity at 3 µM,MARK3; [1],101%
same,remaining activity at 3 µM,MARK3; [2],100%
same,inhibition at 3 µM,PKCnu/PRKD3,20.1%
same,remaining activity at 3 µM,PKCnu/PRKD3; [1],80.1%
same,remaining activity at 3 µM,PKCnu/PRKD3; [2],79.8%
same,inhibition at 3 µM,PKCzeta,2.52%
same,remaining activity at 3 µM,PKCzeta; [1],99.8%
same,remaining activity at 3 µM,PKCzeta; [2],95.2%
